According to patent publication US20160159861A1, “APJ Receptor Compounds” (priority 2013, published 2016):
Where two headings read alike, the source gives them in different places. Peptide text beside a SMILES is read from it.

Key:
[1] = target: T1, human APJ receptor (hAPJ) (Homo sapiens, UniProt P35414); test: HTRF cAMP assay: inhibition of NKH477-stimulated cAMP in HEK cells stably expressing hAPJ; assay type: cell-based; settings: for % IA (cAMP inhibition, hAPJ HEK): intrinsic activity; for Ranking: composite class of EC50 (hAPJ), % IA and % histamine or formal (+) charge; for Emax: HEK293, read-out: % IA, bound stated
T1 construct: expressed in transfected cells
T1 sequence (P35414 1-380): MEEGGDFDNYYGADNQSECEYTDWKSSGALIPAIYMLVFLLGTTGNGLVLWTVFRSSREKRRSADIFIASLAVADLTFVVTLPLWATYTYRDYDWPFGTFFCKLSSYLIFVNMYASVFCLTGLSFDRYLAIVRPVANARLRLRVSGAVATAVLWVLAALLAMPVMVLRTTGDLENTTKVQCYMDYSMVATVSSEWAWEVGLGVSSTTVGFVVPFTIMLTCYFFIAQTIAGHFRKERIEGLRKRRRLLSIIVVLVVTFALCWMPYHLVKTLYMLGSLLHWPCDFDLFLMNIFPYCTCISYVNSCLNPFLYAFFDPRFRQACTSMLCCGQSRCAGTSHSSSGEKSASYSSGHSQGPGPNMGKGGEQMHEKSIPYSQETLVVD
Summary of the method: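 HEK cells stably expressing hAPJ, induced with 1 nG/mL doxycycline and seeded overnight at 40 k/well. cAMP read by HTRF competitive immunoassay using cryptate-labeled anti-cAMP antibody and d2-labeled cAMP.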

rat peritoneal cells = test: Ex vivo histamine release assay in rat peritoneal cells (vs. Compound 48/80); assay type: cell-based
Description: More desirable pharmacological tolerability can include a decrease in an undesirable side effect (e.g., histamine release, an indicator of mast cell degranulation) without a significant loss in activity of the compound.
Screening of the variant G protein receptor compounds against a control compound for histamine release can be done following standard assays. The standard assay can include comparison to a control compound known to elicit a histamine response (e.g., 48/80 having CAS No. 94724-12-6). Such an assay using rat peritoneal cells is described herein for the APJ compounds.
Test compounds were assayed in the ex vivo histamine release assay using a 3-point dose response. Concentrations of total histamine contained in the cells is used to correct for variability in the numbers of mast cells in the lavage per well.
Resident peritoneal cells were harvested from naïve Sprague Dawley rats (male 200-300 gr, Charles River). Rats were euthanized by CO2 asphyxiation and a skin incision was made along the middle-line of the abdomen. Thirty milliliters of HBSS (HyClone, cat#SH 30268.01) containing 20 mM HEPES and 0.2% BSA (heretofore Assay Buffer) were injected intraperitoneally using a 30 mL syringe with the attached 18 gauge needle. The abdomen was gently lavaged for 1-2 min and 7-10 milliliters of the peritoneal lavage were carefully aspirated. Cell count in the peritoneal lavage was determined using Cellometer Auto T4 (Nexcelom Bioscience). The peritoneal cell count was adjusted to […] cells/mL in Assay Buffer. Rat peritoneal cells were kept at room temperature before and during the assay.
For the 10-point assay, 3-fold serial dilutions were prepared for each test compound in 100% DMSO in 96-well plates (Greiner Bio One, Ref#651261)—from 100 μM down to […]. For the 3-point assay, 10-fold serial dilutions were prepared in 100% DMSO at 100 μM, 10 μM and 1 μM concentrations. From this plate, 5 μL of compound were transferred to a new plate containing 45 μL Assay Buffer to generate a compound plate with 10× final concentrations in 10% DMSO with Assay Buffer. In the final plates, column 11 contained 1% DMSO for the low-histamine-releasing control.
Suspensions of the rat peritoneal cells (90 μL of 2.75×10^5 cells/mL; →25,000 cells per well) were introduced into each well of a new 96-well microtiter plate (Greiner Bio One, Ref#651261) and 10 μL aliquots of the serially diluted compounds were transferred to the cells in each well. The microtiter plate was incubated for 30 min at room temperature. Following incubation cells were spun down (500 rpm, 7 min) and supernatants were collected for further analysis. Supernatants were diluted 6 times with the assay buffer (15 μL to 75 μL, for 90 μL total) and released histamine content was determined using HTRF® Histamine assay kit (CisBio, cat#62HTMPEB). To measure the total histamine in each well, cells were lysed by addition of 15 μL 5% TritonX-100 to each well followed by incubation for 15 minutes. The plates were then spun at 3000 rpm for 5 minutes, and 10 μL of supernatant were diluted 9-fold in assay buffer (10 μL to 80 μL for 90 μL total) to make the “total” histamine plate. Histamine content was measured as described above for the “released” histamine values.
The standard positive control was Compound 48/80 (Enzo Life Sciences), a oligomeric polymer mixture produced by the condensation of N-methyl-p-methoxyphenethylamine with formaldehyde. The trimer is the most abundant in the mixture Compound 48/80 is used to promote mast cell degranulation and activates G proteins by a mechanism analogous to that of mastoparan. […] See references: T. Higashijima et al., J. Biol., Chem., 265 14176 (1990); M. Mousli et al., FEBS Lett., 259 260 (1990); K. Gietzen et al., Biochim. Biophys. Acta, 736 109 (1983); K. Gietzen, Biochem. J., 1983 216 611 and C. Bronner et al., Biochim. Biophys. Acta, 920 301(1987).

[2] = EC50 (cAMP inhibition, hAPJ HEK), Table 6, hAPJ HEK cells, NKH477-stimulated cAMP
[3] = histamine release from rat peritoneal cells relative to Compound 48/80
[4] = HTRF cAMP Assay, per data of Table 6
[5] = Table 6, hAPJ HEK cells, NKH477-stimulated cAMP, read-out: EC50 (cAMP inhibition, hAPJ HEK)

Histamine (% vs. 48/80) (rat peritoneal cells) [%]	EC50 ([1]; HTRF cAMP Assay, per data of Table 6, read-out: EC50 (hAPJ), inhibition of cAMP production, bound stated) [µM]	SMILES	% IA (cAMP inhibition, hAPJ HEK) ([1]; Table 6, hAPJ HEK cells) [%]	Ranking [1]	EC50 [1, 2] [µM]	Histamine (% vs. 48/80) (rat peritoneal cells; [3]) [%]	EC50 ([1]; EC50 (hAPJ), inhibition of cAMP production, bound stated, HTRF cAMP Assay, per data of Table 6) [µM]	Emax [1, 4] [%]	inhibition of NKH477-stimulated increase in cAMP, dose dependent ([1]; concentration response curves, FIGS. 1 and 2, HEK cells stably expressing APJ)	EC50 [1, 5] [µM]
65		CCCCCCCCCCCCCCCC(=O)N1CCC[C@H]1C(=O)N[C@@H](CCCCNC(=O)[C@@H]1CCCN1C(=O)[C@H](Cc1ccccc1)NC(=O)[C@@H](NC(=O)[C@H](CC(=O)O)NC(=O)[C@H](C)NC(=O)[C@H](CO)NC(=O)[C@H](CCCNC(=N)N)NC(=O)[C@H](CCCNC(=N)N)NC(=O)[C@@H](CCCCN)NC(=O)[C@@H]1CCCN1C(C)=O)[C@@H](C)CC)C(=O)N[C@@H](CCCNC(=N)N)C(=O)N[C@@H](CCCNC(=N)N)C(=O)N[C@@H](CO)C(=O)N[C@@H](C)C(=O)N[C@@H](CC(=O)O)C(=O)N[C@H](C(=O)N[C@@H](Cc1ccccc1)C(=O)N1CCC[C@H]1C(N)=O)[C@@H](C)CC [Compound 9] (HELM PEPTIDE1{[CCCCCCCCCCCCCCCC(=O)[*:2]].P.K.R.R.S.A.D.I.F.P.[am]}|PEPTIDE2{[ac].P.[dK].R.R.S.A.D.I.F.P}$PEPTIDE1,PEPTIDE2,3:R3-11:R2$$$V2.0)	84	** (EC50 25-50 nM (hAPJ), % IA 50-79% and either % histamine>35% or formal (+) charge>1)						
		CCCCCCCCCCCCCCCC(=O)N[C@H](C(=O)N[C@H](C(=O)N[C@@H](Cc1ccccc1)C(=O)N[C@@H](CCCNC(=N)N)C(=O)N[C@@H](CO)C(=O)N[C@@H](CO)C(=O)N[C@@H](CCC(=O)O)C(=O)N[C@H](C)C(=O)N[C@@H](CCCNC(=N)N)C(=O)N[C@@H](CCCNC(=N)N)C(=O)N[C@@H](CO)C(=O)N[C@@H](C)C(=O)N[C@@H](CC(=O)O)C(=O)N[C@H](C(=O)N[C@@H](Cc1ccccc1)C(=O)N[C@H](C(N)=O)[C@@H](C)CC)[C@@H](C)CC)C(C)C)[C@@H](C)O [Compound 10] (HELM PEPTIDE1{[CCCCCCCCCCCCCCCC(=O)[*:2]].T.V.F.R.S.S.E.[dA].R.R.S.A.D.I.F.I.[am]}$$$$V2.0)	106	** (EC50 25-50 nM (hAPJ), % IA 50-79% and either % histamine>35% or formal (+) charge>1)	0.039	3				
		CCCCCCCCCCCCCCCC(=O)N[C@H](C(=O)N1CCC[C@H]1C(=O)N[C@H](C(=O)N[C@@H](Cc1ccccc1)C(=O)N[C@@H](CCCNC(=N)N)C(=O)N[C@@H](CO)C(=O)N[C@@H](CO)C(=O)N1CCC[C@H]1C(=O)N[C@@H](CCC(=O)O)C(=O)N[C@H](CCCCN)C(=O)N[C@@H](CCCNC(=N)N)C(=O)N[C@@H](CCCNC(=N)N)C(=O)N[C@@H](CO)C(=O)N[C@@H](C)C(=O)N[C@@H](CC(=O)O)C(=O)N[C@H](C(=O)N[C@@H](Cc1ccccc1)C(=O)N[C@H](C(N)=O)[C@@H](C)CC)[C@@H](C)CC)C(C)C)[C@@H](C)O [Compound 2] (HELM PEPTIDE1{[CCCCCCCCCCCCCCCC(=O)[*:2]].T.P.V.F.R.S.S.P.E.[dK].R.R.S.A.D.I.F.I.[am]}$$$$V2.0)	60	** (EC50 25-50 nM (hAPJ), % IA 50-79% and either % histamine>35% or formal (+) charge>1)	0.004	49				
		CCCCCCCCCCCCCCCC(=O)N[C@H](C(=O)N[C@H](C(=O)N[C@@H](Cc1ccccc1)C(=O)N[C@@H](CCCNC(=N)N)C(=O)N[C@@H](CO)C(=O)N[C@@H](CO)C(=O)N[C@@H](CCC(=O)O)C(=O)N[C@H](CCCN)C(=O)N[C@@H](CCCNC(=N)N)C(=O)N[C@@H](CCCNC(=N)N)C(=O)N[C@@H](CO)C(=O)N[C@@H](C)C(=O)N[C@@H](CC(=O)O)C(=O)N[C@H](C(=O)N[C@@H](Cc1ccccc1)C(=O)N[C@H](C(N)=O)[C@@H](C)CC)[C@@H](C)CC)C(C)C)[C@@H](C)O [Compound 8] (HELM PEPTIDE1{[CCCCCCCCCCCCCCCC(=O)[*:2]].T.V.F.R.S.S.E.[NCCC[C@@H](N[*:1])C(=O)[*:2]].R.R.S.A.D.I.F.I.[am]}$$$$V2.0)	99	***** (EC50≦25 nM (hAPJ), % IA≧80% and either % histamine≦35% or formal (+) charge≦1)	0.014	9	≤ 0.025	≥ 80	inhibited	
21	0.025 to 0.05	CCCCCCCCCCCCCCCC(=O)N[C@H](C(=O)N[C@H](C(=O)N[C@@H](Cc1ccccc1)C(=O)N[C@@H](CCC(N)=O)C(=O)N[C@@H](CO)C(=O)N[C@@H](CCC(=O)O)C(=O)N[C@H](CCCCN)C(=O)N[C@@H](CCCNC(=N)N)C(=O)N[C@@H](CCCNC(=N)N)C(=O)N[C@@H](CO)C(=O)N[C@@H](C)C(=O)N[C@@H](CC(=O)O)C(=O)N[C@@H](Cc1ccccc1)C(=O)N[C@H](C(N)=O)[C@@H](C)CC)C(C)C)[C@@H](C)O [Compound 16, TVFQSEkRRSADFI] (HELM PEPTIDE1{[CCCCCCCCCCCCCCCC(=O)[*:2]].T.V.F.Q.S.E.[dK].R.R.S.A.D.F.I.[am]}$$$$V2.0)	78	*** (EC50 25-50 nM (hAPJ), % IA 50-79% and either % histamine≦35% or formal (+) charge≦1)				50 to 79		0.01

SMILES	Histamine (% vs. 48/80) (rat peritoneal cells) [%]	EC50 ([1]; HTRF cAMP Assay, per data of Table 6, read-out: EC50 (hAPJ), inhibition of cAMP production, bound stated) [µM]	% IA (cAMP inhibition, hAPJ HEK) ([1]; Table 6, hAPJ HEK cells) [%]	Ranking [1]	EC50 [1, 2] [µM]	Histamine (% vs. 48/80) (rat peritoneal cells; [3]) [%]	EC50 ([1]; EC50 (hAPJ), inhibition of cAMP production, bound stated, HTRF cAMP Assay, per data of Table 6) [µM]	Emax [1, 4] [%]	inhibition of NKH477-stimulated increase in cAMP, dose dependent ([1]; concentration response curves, FIGS. 1 and 2, HEK cells stably expressing APJ)	EC50 [1, 5] [µM]
CCCCCCCCCCCCCCCC(=O)N[C@H](C(=O)N[C@H](C(=O)N[C@@H](Cc1ccccc1)C(=O)N[C@@H](CCCNC(=N)N)C(=O)N[C@@H](CO)C(=O)N[C@@H](CO)C(=O)N[C@@H](CCC(=O)O)C(=O)N[C@H](CCCCN)C(=O)N[C@@H](CCCNC(=N)N)C(=O)N[C@@H](CCCNC(=N)N)C(=O)N[C@@H](CO)C(=O)N[C@@H](C)C(=O)N[C@@H](CC(=O)O)C(=O)N[C@@H](Cc1ccc(-c2ccccc2)cc1)C(=O)N[C@@H](Cc1ccccc1)C(=O)N[C@H](C(N)=O)[C@@H](C)CC)C(C)C)[C@@H](C)O [Compound 11, TVFRSSEkRRSAD(Bip)FI] (HELM PEPTIDE1{[CCCCCCCCCCCCCCCC(=O)[*:2]].T.V.F.R.S.S.E.[dK].R.R.S.A.D.[O=C([C@H](Cc1ccc(-c2ccccc2)cc1)N[*:1])[*:2]].F.I.[am]}$$$$V2.0)	8		76	** (EC50 25-50 nM (hAPJ), % IA 50-79% and either % histamine>35% or formal (+) charge>1)						0.034
